Read-outs that look alike come from different tables or passages of the source.
Tests used:
[1] = test system: serum lipids; test: Lipid-lowering action in normolipemic rats; assay type: in vivo; conditions: Rattus norvegicus, 72 h, 4 × 100 mg/kg oral over 3 days, male Wistar rats, vs controls, X ± Sx
Protocol: Lipid-lowering action was tested on groups of 10 male Wistar rats (Ivanovas-Kisslegg), weight 200-220 g, normolipemic, or ordinary ration ("ssniff" complete feed).
The test compounds were taken up in an aqueous solution of 0.25% agar and 0.85% NaCl and administered orally. After administration of 4 × 100 mg/kg over a period of 3 days, the animals were bled by cardiac puncture after privation of […] for 4 hours.^1
^1 H. Enomoto and R. Zschocke, 3rd Int. Symp. Atheroscler, Berlin 1973, Abstr. 238.
Serum lipids were determined with a Technicon autoanalyzer. Total cholesterol (TC) was tested by the Liebermann-Burchard reaction. Quantitative analysis for triglycerides (TG) was performed by Eggstein and Kreutz's enzyme method (Klin. Wschr. 44, 262, 1966), modified for autoanalyzer.
Lipid lowering effect is expressed as percent lowering of total cholesterol and triglycerides compared to controls.

[2] = Oral tolerance (acute toxicity, LD50); conditions: mouse, in vivo, mice, 8th day after treatment, Litchfield-Wilcoxon
Protocol: After oral administration of the test compounds to mice of strain NMR-I, weight 15-20 g, the acute toxicity was determined. LD50 values were calculated following Litchfield-Wilcoxon (J. Pharmak. Exp. Therap. 96, 99, 1949) and pertain to the 8th day after treatment.

[3] = read-out: % Lowering TC (total cholesterol)
[4] = read-out: % Lowering TG (triglycerides)

Row | SMILES | inhibition in vivo at 100 mg/kg [1, 3] [%] | inhibition in vivo at 100 mg/kg [1, 4] [%] | LD50 at 192 h [2] [mg/kg]
1 | CC(C)(C)c1ccc(OCC(O)CNc2cccc(C(=O)O)c2)cc1 (stereo not drawn) [Compound 71, 3-(3'-Carboxyphenylamino)-1-(4'-t-butylphenoxy)-propanol-(2)] | 28.9 ± 9.5 | 58.4 ± 15.5 | –
2 | CC(C)(C)c1ccc(NCC(O)COc2ccc(C(=O)O)cc2)cc1 (stereo not drawn) [Compound 72, 3-(4'-Carboxyphenoxy)-1-(4'-t-butylphenylamino)-propanol-(2)] | 53.7 ± 10.4 | 75.1 ± 9.9 | –
3 | CC(C)(C)c1ccc(NCC(O)COc2ccc(C=CC(=O)O)cc2)cc1 (stereo not drawn) [Compound 74, 3-4'-(2-Carboxyvinyl)-phenoxy!-1-(4'-t-butylphenylamino)-propanol-(2)] | 50.7 ± 6.4 | 69.7 ± 9.6 | –
4 | O=C(O)c1ccc(OCC(O)CSc2ccc(Cl)cc2)cc1 (stereo not drawn) [Compound 75, 3-(4'-Carboxyphenoxy)-1-(4'-chlorphenylmercapto)-propanol-(2)] | 32.2 ± 8.7 | 55.8 ± 14.2 | –
5 | O=C(O)C=Cc1ccc(OCC(O)CSc2ccc(Cl)cc2)cc1 (stereo not drawn) [Compound 77, 3-4'-(2-Carboxyvinyl)-phenoxy!-1-(4'-chlorphenylmercapto)-propanol-(2)] | 55.5 ± 12.7 | 77.8 ± 12 | –
6 | CC(C)(C)c1ccc(SCC(O)COc2ccc(C(=O)O)cc2)cc1 (stereo not drawn) [Compound 80, 3-(4'-Carboxyphenoxy)-1-(4'-t-butylphenylmercapto)-propanol-(2)] | 48.2 ± 11.6 | 71.6 ± 18.6 | –
7 | CC(C)(C)c1ccc(SCC(O)COc2ccc(C=CC(=O)O)cc2)cc1 (stereo not drawn) [Compound 81, 3-4'-(2-Carboxyvinyl)-phenoxy!-1-(4'-t-butylphenylmercapto)-propanol-(2)] | 27.5 ± 12.7 | 58.7 ± 14.8 | –
8 | O=C(OCCCl)c1ccc(OCC(O)COc2ccc(Cl)cc2)cc1 (stereo not drawn) [Compound 82] | 53.9 ± 9.1 | 83.8 ± 6 | –
9 | CN(C)CCOC(=O)c1ccc(OCC(O)COc2ccc(Cl)cc2)cc1 (stereo not drawn) [Compound 83] | 46.2 ± 15.4 | 72.5 ± 11.1 | –
10 | O=C(OCc1cccnc1)c1ccc(OCC(O)COc2ccc(Cl)cc2)cc1 (stereo not drawn) [Compound 85, 3-(4'-pyridyl-(3)-methoxycarbonylphenoxy)-1-(4'-chlorophenoxy)-propanol-(2)] | 52 ± 8.6 | 81.4 ± 5.9 | –
11 | COC(=O)c1ccc(OCC(COc2ccc(Cl)cc2)OC(=O)c2cccnc2)cc1 (stereo not drawn) [Compound 95, 3-(4'-methoxycarbonylphenoxy)-1-(4'-chlorophenoxy)-propanol-(2) nicotinic acid ester] | 38.3 ± 15.4 | 63.8 ± 14.8 | –
12 | CC(C)OC(=O)c1ccc(OCC(COc2ccc(Cl)cc2)OC(=O)c2cccnc2)cc1 (stereo not drawn) [Compound 96] | 36.8 ± 14.3 | 74 ± 4.8 | –
13 | COC(=O)c1ccc(OCC(CSc2ccc(Cl)cc2)OC(=O)c2cccnc2)cc1 (stereo not drawn) [Compound 104] | 48 ± 7.9 | 81.1 ± 5.6 | –
14 | O=C(NO)c1ccc(OCC(O)COc2ccc(Cl)cc2)cc1 (stereo not drawn) [Compound 105] | 29.8 ± 14.3 | 53.2 ± 11.2 | –
15 | O=C(C=Cc1ccc(OCC(O)COc2ccc(Cl)cc2)cc1)NO (stereo not drawn) [Compound 106, 3-(4'-(2-(n-hydroxycarbamoyl)-vinyl)-phenoxy)-1-(4'-chlorophenoxy)-propanol-(2)] | 43.9 ± 19.4 | 64.2 ± 17.1 | –
16 | O=C(CCc1ccc(OCC(O)COc2ccc(Cl)cc2)cc1)NO (stereo not drawn) [Compound 107] | 49.6 ± 13.3 | 84.8 ± 4.1 | –
17 | CC(C)(C)c1ccc(OCC(O)COc2ccc(C(=O)NO)cc2)cc1 (stereo not drawn) [Compound 108] | 51.1 ± 8.3 | 77.8 ± 3.3 | –
18 | CCOC(OCC)c1ccc(OCC(O)COc2ccc(Cl)cc2)cc1 (stereo not drawn) [Compound 110] | 32.1 ± 15.8 | 68 ± 6.5 | –
19 | COC(OC)c1ccc(OCC(O)COc2ccc(C(C)(C)C)cc2)cc1 (stereo not drawn) [Compound 113] | 44.4 ± 11.2 | 84 ± 8.8 | –
20 | CC(C)(C)c1ccc(OCC(O)COc2ccc(C3OCCO3)cc2)cc1 (stereo not drawn) [Compound 114] | 67.9 ± 6.6 | 91.6 ± 4.8 | –
21 | COC(OC)c1ccc(OCC(O)CSc2ccc(Cl)cc2)cc1 (stereo not drawn) [Compound 116] | 43.2 ± 9.8 | 74 ± 9.8 | –
22 | CCOC(=O)C(C)(C)Oc1ccc(Cl)cc1 [clofibrate, 2-(4'-chlorophenoxy)-2-methylpropionic acid ethyl ester, reference compound] | 37.4 ± 13.6 | 50.4 ± 20 | 1900

Reference: US4073935A, “Substituted propanol-(2)-derivatives and their nicotinic acid esters, and process for their preparation, and the use thereof as hypolipemic drugs” (Klinge Pharma GmbH & Co., priority 1974, dated 1978)
